Assay results: patent US20250326814A1, “MODIFIED OXYNTOMODULIN AND METHODS OF USE THEREOF” (OPKO BIOLOGICS LTD., priority 2024, published 2025)
Each block holds one molecule with its values, some of them ahead of it. Starred links: 1 amine or outer side, 2 acyl side, 3 side chain; linkers in the order of their positions; H or OH if unused. Non-standard residues stand in square brackets, D forms with d. Residues, ends and D or L forms follow the SMILES beside them. Groups on a side chain read outwards from the residue. *: point of attachment. C20 diacid = O=C(O)CCCCCCCCCCCCCCCCCCC(=O)*; γGlu = O=C(O)[C@H](CCC(=O)[*:2])N[*:1]; AEEA = NCCOCCOCC(=O)O; Aib = CC(C)(N)C(=O)O

Tests used:
[1] = biological target: T1, glucagon-like peptide-1 (GLP1) receptor (Homo sapiens, UniProt P43220); test: GLP-1 activity EC50 of OXM analogs and GLP-1 therapeutics (Example 4, Table 9); assay type: cell-based; conditions: Example 4; read-out: GLP-1 activity (EC50)
T1 construct: expressed in transfected cells; host or cells: CHO-K1
T1 sequence (P43220 24-463): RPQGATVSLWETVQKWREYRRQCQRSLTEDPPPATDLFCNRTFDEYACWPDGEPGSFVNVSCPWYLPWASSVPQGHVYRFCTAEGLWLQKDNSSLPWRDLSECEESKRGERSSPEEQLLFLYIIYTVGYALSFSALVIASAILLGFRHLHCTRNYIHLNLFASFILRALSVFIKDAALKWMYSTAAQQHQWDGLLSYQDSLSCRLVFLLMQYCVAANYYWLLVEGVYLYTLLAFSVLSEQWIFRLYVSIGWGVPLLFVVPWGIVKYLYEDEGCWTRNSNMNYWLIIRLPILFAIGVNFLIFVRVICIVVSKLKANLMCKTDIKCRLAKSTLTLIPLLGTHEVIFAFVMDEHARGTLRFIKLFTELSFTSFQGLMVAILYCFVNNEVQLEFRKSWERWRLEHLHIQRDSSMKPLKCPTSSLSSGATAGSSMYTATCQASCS
Excerpt: The potencies of the modified OXM analogs newly disclosed in the present application, the OXM Analog alone, and the PEGylated OXM analog were examined and compared by measuring the EC50 of both receptors, glucagon-like peptide-1 (GLP1) and glucagon (GCGR).

GCGR [2] = biological target: T2, GCGR (Homo sapiens, UniProt P47871); test: CBA potency assay, GCGR (Tables 10 and 11); assay type: cell-based
T2 sequence (P47871 26-477): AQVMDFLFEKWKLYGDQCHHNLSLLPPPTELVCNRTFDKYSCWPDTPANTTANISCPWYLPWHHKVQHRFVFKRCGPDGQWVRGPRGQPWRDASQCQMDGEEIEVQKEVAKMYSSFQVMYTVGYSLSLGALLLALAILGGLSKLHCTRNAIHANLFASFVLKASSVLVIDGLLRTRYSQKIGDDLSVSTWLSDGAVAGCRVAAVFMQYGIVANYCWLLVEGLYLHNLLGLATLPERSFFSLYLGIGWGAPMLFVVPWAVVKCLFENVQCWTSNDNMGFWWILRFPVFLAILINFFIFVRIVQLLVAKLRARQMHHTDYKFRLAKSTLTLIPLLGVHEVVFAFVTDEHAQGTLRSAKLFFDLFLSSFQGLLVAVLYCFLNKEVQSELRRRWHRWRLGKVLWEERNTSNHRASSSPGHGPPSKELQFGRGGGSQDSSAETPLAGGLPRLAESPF
Excerpt: (§1) The impact of the longevity-enabling molecule (PEG Vs. FA-peptide/binder complex) on the peptide potency was studied.

GLP1 [3] = biological target: T3, GLP1 (Homo sapiens, UniProt P43220); test: GLP-1 activity in vitro of PEGylated and acylated OXM peptide analogs (Table 12); assay type: cell-based
T3 sequence (P43220 24-463): as the sequence (P43220 24-463) above
Procedure: (§2) The potential benefits of novel acylated OXM products relative to the PEGylated OXM peptide were evaluated for GLP-1 and Glucagon activity in vitro, molecular weight, dosing, and efficacy in a DIO Mouse model.
(§3) The potency of the acylated OXM peptides was compared with the native OXM peptide alone and Pegylated OXM peptide to evaluate the impact of acylation on GLP-1 and Glucagon activities.

GLP1 [4] = biological target: T3, GLP1; test: CBA potency assay, GLP1 (Tables 10 and 11); assay type: cell-based
Excerpt: as §1

GCGR [5] = biological target: T2, GCGR; test: Glucagon activity in vitro of PEGylated and acylated OXM peptide analogs (Table 12); assay type: cell-based; conditions: for GCGR/GLP-1R: ratio of EC50 activity
Procedure: as §2, §3

[6] = Viscosity of the formulated PEGylated OXM product; assay type: physicochemical
DIO mice = test: Weight loss in DIO mice with OPK-88604 and OPK-88006, 30 nmoles/kg; assay type: in vivo; conditions: vs placebo
Procedure: The animals were individually weighed and analyzed for lipid and cholesterol levels prior to treatment and following completion of the study. The levels of fasting glucose and insulin levels were analyzed, and oral glucose tolerance test was performed and compared between groups The levels of plasma triglycerides and cholesterol were evaluated at the end of study and compared to base levels prior to treatment. Levels of total cholesterol, triglycerides and glycogen were also examined at the end of study. Histology of liver was used to analyze for lipid droplets in the liver. All tests were conducted using routine methods known in the art.
DIO mice with weights of around 55 grams were divided into three groups and treated with placebo, 30 nmoles/kg of OPK-88604, or 30 nmoles/kg of OPK-88006 for 4 weeks. The animals were weighed daily for the period of treatment.

- EC50 [1]: 0.105 nM
- % EC50 compare to KPI (GCGR) (GCGR [2]; Table 10): 100%
- EC50 (GCGR [2]; Table 10): 0.6 nM
- EC50 ratio (GCGR\GLP-1R) (GCGR [2]; Table 10): 4.7
- % EC50 compare to KPI (GCGR) (GCGR [2]; Table 11, + HSA): 129%
- EC50 (GCGR [2]; Table 11, + HSA): 1.06 nM
- EC50 ratio (GCGR\GLP-1R) (GCGR [2]; Table 11, + HSA): 5.7
- % EC50 compare to KPI (GCGR) (GCGR [2]; Table 11, without HSA): 100%
- EC50 (GCGR [2]; Table 11, without HSA): 1.37 nM
- EC50 ratio (GCGR\GLP-1R) (GCGR [2]; Table 11, without HSA): 6.8
- EC50 (GLP1 [3]): 0.0168 nM
- % EC50 compare to KPI (GLP1) (GLP1 [4]; Table 10): 100%
- EC50 (GLP1 [4]; Table 10): 0.127 nM
- % EC50 compare to KPI (GLP1) (GLP1 [4]; Table 11, + HSA): 107%
- EC50 (GLP1 [4]; Table 11, + HSA): 0.187 nM
- % EC50 compare to KPI (GLP1) (GLP1 [4]; Table 11, without HSA): 100%
- EC50 (GLP1 [4]; Table 11, without HSA): 0.201 nM
- EC50 (GCGR [5]): 0.0731 nM
- GCGR/GLP-1R (GCGR [5]): 4.4
Molecule: CC[C@H](C)[C@H](NC(=O)[C@H](CC(N)=O)NC(=O)[C@H](CC(N)=O)NC(=O)[C@H](CCCNC(=N)N)NC(=O)[C@H](CC(N)=O)NC(=O)[C@H](CCCNC(=N)N)NC(=O)CNC(=O)C(C)(C)NC(=O)[C@H](CC(N)=O)NC(=O)[C@H](CC(C)C)NC(=O)[C@H](CC(C)C)NC(=O)[C@H](Cc1c[nH]c2ccccc12)NC(=O)[C@H](CCC(N)=O)NC(=O)[C@@H](NC(=O)[C@H](Cc1ccccc1)NC(=O)[C@H](CCC(=O)O)NC(=O)[C@H](CCC(N)=O)NC(=O)[C@H](C)NC(=O)[C@H](CCCCN)NC(=O)[C@H](CCCCN)NC(=O)[C@H](CO)NC(=O)[C@H](CC(=O)O)NC(=O)[C@H](CC(C)C)NC(=O)[C@H](Cc1ccc(O)cc1)NC(=O)[C@H](CCCCN)NC(=O)[C@H](CO)NC(=O)[C@H](Cc1ccc(O)cc1)NC(=O)[C@H](CC(=O)O)NC(=O)[C@H](CO)NC(=O)[C@@H](NC(=O)[C@H](Cc1ccccc1)NC(=O)[C@@H](NC(=O)CNC(=O)[C@H](CCC(N)=O)NC(=O)C(C)(C)NC(=O)[C@@H](N)Cc1c[nH]cn1)[C@@H](C)O)[C@@H](C)O)C(C)C)C(=O)N[C@@H](C)C(=O)N[C@@H](CS)C(=O)N[C@@H](CS)C(N)=O [OPK-88003 KPI]

Molecule: OPK-88003 API: SEQ ID NO: 3 where Xaa38=Cys-PEG20 and Xaa39=Cys-PEG20
- viscosity of the formulated product [6]: high viscosity

- EC50 (GLP1 [3]): 0.019 nM
- EC50 (GCGR [5]): 0.31 nM
- GCGR/GLP-1R (GCGR [5]): 16.3
Molecule: CC[C@H](C)[C@H](NC(=O)[C@H](CC(N)=O)NC(=O)[C@H](CC(N)=O)NC(=O)[C@H](CCCNC(=N)N)NC(=O)[C@H](CC(N)=O)NC(=O)[C@H](CCCNC(=N)N)NC(=O)CNC(=O)C(C)(C)NC(=O)[C@H](CC(N)=O)NC(=O)[C@H](CC(C)C)NC(=O)[C@H](CC(C)C)NC(=O)[C@H](Cc1c[nH]c2ccccc12)NC(=O)[C@H](CCC(N)=O)NC(=O)[C@@H](NC(=O)[C@H](Cc1ccccc1)NC(=O)[C@H](CCC(=O)O)NC(=O)[C@H](CCC(N)=O)NC(=O)[C@H](C)NC(=O)[C@H](CCCCN)NC(=O)[C@H](CCCCN)NC(=O)[C@H](CO)NC(=O)[C@H](CC(=O)O)NC(=O)[C@H](CC(C)C)NC(=O)[C@H](Cc1ccc(O)cc1)NC(=O)[C@H](CCCCN)NC(=O)[C@H](CO)NC(=O)[C@H](Cc1ccc(O)cc1)NC(=O)[C@H](CC(=O)O)NC(=O)[C@H](CO)NC(=O)[C@@H](NC(=O)[C@H](Cc1ccccc1)NC(=O)[C@@H](NC(=O)CNC(=O)[C@H](CCC(N)=O)NC(=O)C(C)(C)NC(=O)[C@@H](N)Cc1c[nH]cn1)[C@@H](C)O)[C@@H](C)O)C(C)C)C(=O)N[C@@H](C)C(=O)N[C@@H](CCCCNC(=O)COCCOCCNC(=O)COCCOCCNC(=O)CC[C@H](NC(=O)CCCCCCCCCCCCCCCCCCC(=O)O)C(=O)O)C(=O)NCC(N)=O [Variant 5] (H-H[Aib]QGTFTSDYSKYLDSKKAQEFVQWLLN[Aib]GRNRNNIAK([AEEA-AEEA-γGlu-C20 diacid])G-NH2)
- weight loss over 4 weeks (FIG. 41A, 41B) (DIO mice): significant weight loss over 4 weeks
